Series [1] in a line: Characteristics of the ingredients (pH, solubility). In kind it is physicochemical.
Series [2] is described as follows: Irritancy of the ingredient.
For another series, the system named is homme. The note with it: cited from earlier work.

Some results are limits rather than exact numbers.

“N|N'(N"-2-hydroxyéthyl-N"-carboxyéthylaminoéthyl) amidoacétate|-N,N-diméthyl-N-coco-ammoniumbétaine”: the solubilité result in series [1] was “soluble de façon limpide dans l'eau, l'éthanol, l'isopropanol”. In addition, in series [1] (at 10%), the “pH (à 10%)” value is on record as 8-9. With `CCCCCCCCC=CCCCCCCCC1=NCCN1CCO` [1-hydroxyéthyl-2-heptadécényl-imidazoline], the solubilité result in series [1] is reported as “soluble dans la plupart des solvants polaires et apolaires”. As for `CCCCCCCCCCCC[N+](C)(C)CC(=O)[O-]` [lauryldiméthylcarboxyméthylammonium bétaine], the “irritation des muqueuses et des yeux” value in series [2] was “n'irrite ni les muqueuses ni les yeux”. For `C=O` [formaldéhyde], in the series with homme (man, inhalation), the “larmoiements (inhalation)” value is recorded as ≥ 0,1 ppm and the oedème pulmonaire is on record as 50 ppm. Further, in the series on homme (some exposed persons), the irritation oculaire superficielle is listed as ≥ 0,4 ppm.

(Values after patent publication EP0478445B1, “Composition for cleaning and decontaminating, in particular surgical instruments” (priority 1990, dated 1992).)
